In patent US20080004329A1, “Pharmaceutical compositions of ropinirole and methods of use thereof” (priority 2006, published 2008):

Experiments:
[1] = human
Experimental: In vitro data can be extrapolated to in vivo conditions in order to evaluate the gel dose for bioequivalence to ropinirole oral absorption. […] Therefore, an intermediate oral dose of 6 mg/day with BA=50% delivers a systemic dose of 3 mg/day. […] This corresponds to a daily dose of 9.5 mg ropinirole HCl (equivalent to 8.3 mg free base).
Based on these pharmacokinetic parameters, the daily input rate can be estimated using the following equation: Ka=CL×Cp, where Ka is the daily input rate (absorption rate), CL the drug plasma clearance, and Cp the plasma concentration.
Scaled to the clinical daily input rate, the required skin surface can be determined using the following equation: S=Ka/JSS, wherein S is the application skin surface area, and JSS is the in vitro steady-state drug flux.
Alternatively, the gel amount could be increased by 3.7 times (1 g instead of 0.3 g), and be applied to a 3.7 times larger skin area (185 cm instead of 50 cm^2).
This corresponds to a daily dose of 15 mg ropinirole HCl (equivalent to 13 mg free base).

[2] = cited from earlier work
[3] = Titration with NaOH for the experimental ionization profile in a hydroalcoholic base; assay type: physicochemical; conditions: hydroalcoholic vehicle (ethanol 45%, propylene glycol 20%, water 25.58%), not gellified; read-out: apparent pKa from the experimental ionization profile
Description: The following formulation was used for titration to determine the experimental ionization profile of ropinirole in a hydroalcoholic base: Ropinirole hydrochloride* 3.42% w/w, myristyl alcohol 1.00% w/w, diethylene glycol monoethylether 5.00% w/w, propylene glycol 20.00% w/w, absolute ethanol 45.00% w/w, and purified water 25.58% w/w (total 100; * ropinirole HCl 3.42% (MW=296.84) corresponds to ropinirole free base 3% (MW=260.38), ratio 1.14). The formulation was not gellified.
The ropinirole HC1 solution was titrated with NaOH 0.1 M solution. The solvent was the same as the formulation, in order to keep a constant composition. NaOH was chosen so as to limit dilution of the titrated formulation; but no dilution correction was made. The formulation was titrated by 0.5-1 mL increments where the pH change was small. Increments were reduced to 0.1 mL near the equivalence point. The pH was monitored with a glass electrode (Mettler Toledo InLab 432, Mettler-Toledo, Inc., Columbus, Ohio), and recorded with a Mettler Toledo MP. 230 pH meter (Mettler-Toledo, Inc., Columbus, Ohio).
Based on the titration curve, the ionization rate [BH] was calculated according to Henderson-Hasselbalch equation for weak base: […]

[4] = In vitro permeation, Franz cells, cadaver skin finite dose technique (Example 1); assay type: in vitro ADME, human
Experimental: The in vitro human cadaver skin model has proven to be a valuable tool for the study of percutaneous absorption and the determination of topically applied drugs. The model uses human cadaver skin mounted in specially designed diffusion cells that allow the skin to be maintained at a temperature and humidity that match typical in vivo conditions (Franz, T. J., “Percutaneous absorption: on the relevance of in vitro data,” J. Invest Dermatol 64:190-195 (1975)). A finite dose (for example: 4-7 mg/cm^2) of formulation is applied to the outer surface of the skin and drug absorption is measured by monitoring its rate of appearance in the receptor solution bathing the inner surface of the skin. Data defining total absorption, rate of absorption, as well as skin content can be accurately determined in this model. The method has historic precedent for accurately predicting in vivo percutaneous absorption kinetics (Franz, T. J., “The finite dose technique as a valid in vitro model for the study of percutaneous absorption in man,” In: Skin: Drug Application and Evaluation of Environmental Hazards, Current Problems in Dermatology, vol. 7, G. Simon, Z. Paster, M Klingberg, M. Kaye (Eds), Basel, Switzerland, S. Karger, pages 58-68 (1978)).
Percutaneous absorption was measured using the in vitro cadaver skin finite dose technique. Cryo-preserved, human cadaver trunk skin was obtained from a skin bank and stored in water-impermeable plastic bags at <−70° C. until used.
Prior to the experiment, skin was removed from the bag, placed in approximately 37° C. water for five minutes, and then cut into sections large enough to fit on 1 cm^2 Franz Cells (Crown Glass Co., Somerville, N.J.). Briefly, skin samples were prepared as follows. A small volume of phosphate buffered saline (PBS) was used to cover the bottom of the Petri dishes. Skin disks generally depleted of fat layers were placed in the Petri dishes for hydration. A Stadie-Riggs manual tissue microtome was used for slicing excised skin samples. Approximately 2 mL of PBS was placed into the middle cavity of the microtome as slicing lubricant. Skin disks were placed, dermal side up, into the middle cavity of the microtome. Filter paper was soaked with PBS, inserted in the cavity just above the skin disk. The filter paper prevented the dermis from sliding onto the top of the cutting block and helped to insure more precise cutting. When all three blades of the microtome were assembled, the microtome was turned into the upright position. Using a regular and careful sawing motion the skin tissue was sliced in cross-section. The skin tissue slice was removed with the tweezers and placed in the Petri dish for hydration. Each skin slice was wrapped in Parafilm® (Pechiney Plastic Packaging, Inc., Chicago, Ill.) laboratory film and placed in water-impermeable plastic bags. Skin samples were identified by the donor and the provider code. If further storage was necessary, the skin slices were stored in the freezer at −20° C. until further use.
The epidermal cell (chimney) was left open to ambient laboratory conditions. The dermal cell was filled with receptor solution. Receptor solution for in vitro skin permeations was typically an isotonic saline at physiological pH. The receptor solution may also contain a drug solubilizer, for example, to increase lipophilic drug solubility in the receptor phase. […]

[5] = water at 20° C.; cited from earlier work
[6] = system: guinea pigs; test: Skin sensitization, induction and challenge; assay type: in vivo; conditions: guinea pigs induced (with and without Freund's Complete Adjuvant) and challenged with 5% ropinirole HCl
[7] = EtOH(45)/Water(40)/PG(10), 5% drug

SMILES | Ka, daily input rate (absorption rate), Ka=CL×Cp [1] [µg/h] | Body clearance ([2]; REQUIP Prescribing Information) | maximum plasma levels (Cmax) ([2]; repeated oral administration, 6 mg/day in 3 divided doses, steady state (Taylor et al.)) [ng/mL] | pKa [3] | skin permeation characteristics [4, 7] | peak flux ([4]; EtOH(45)/Water(40)/PG(10), 5% drug, pH 9.5-10.0) [μg/cm^2/hr] | ropinirole remained in the epidermis ([4]; after 48 hours) | Bioavailability in the receptor chamber fluid ([4]; percent dose recovered in receptor fluid) | solubility in water [5] [mg/mL] | sensitization category [6]
CCCN(CCC)CCc1cccc2c1CC(=O)N2 [ropinirole] | 347.8 | about 47 L/h | 7.4 | 8 |  |  |  |  |  | 
CCCN(CCC)CCc1cccc2c1CC(=O)N2 [ropinirole free base] |  |  |  |  | good permeation characteristics | 3.5 | Approximately 20% | about 40% |  | 
CCCN(CCC)CCc1cccc2c1CC(=O)N2.Cl [Ropinirole hydrochloride, 4-[2-(dipropylamino)-ethyl]-1,3-dihydro-2H-indol-2-one monohydrochloride] |  |  |  |  | did not permeate well |  |  |  | 133 | mild sensitizer
